Read-outs that look alike come from different tables or passages of the source.
Tested on: cancer cell lines
Experiment: Cancer cell proliferation activity (CellTiterGlo, 72 h)
Assay type: cell-based
Conditions: 72 h, 72 h, read-out: IC50
Outline: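 Cells seeded overnight at 37 °C, then dosed with compound at 0.1% final DMSO and incubated 72 h at 37 °C (5% or 10% CO2 by medium).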

Question: Which results are given for `O=c1[nH]c(=O)n([C@H]2C[C@H](O)[C@](CO)(CF)O2)cc1F` [Cpd. No. 112, 5-fluoro-1-((2R,4S,5R)-5-(fluoromethyl)-4-hydroxy-5-(hydroxymethyl)tetrahydrofuran-2-yl)pyrimidine-2,4(1H,3H)-dione]?
Answer: IC50 (5637 cell line (bladder)): 2.89 µM; IC50 (CLS439 cell line (bladder)): > 50 µM; IC50 (HS729 cell line (muscle)): > 50 µM; IC50 (HSS78T cell line): > 50 µM; IC50 (JAR cell line (placenta)): > 50 µM; IC50 (SKMELS cell line): > 50 µM; IC50 (Homo sapiens, 22Rv1, 72 h, 22RV1 cell line (prostate)): 1.5 µM; IC50 (Homo sapiens, 786-0, 72 h, 786O cell line (kidney)): > 50 µM; IC50 (Homo sapiens, A204, 72 h, A204 cell line (muscle)): 5.28 µM; IC50 (Homo sapiens, A549, 72 h, A549 cell line): 2.52 µM; IC50 (Homo sapiens, A673, 72 h, A673 cell line (bone)): 5.33 µM; IC50 (Homo sapiens, A2780, 72 h, A2780 cell line (ovary)): > 50 µM; IC50 (Homo sapiens, A-375, 72 h, A375 cell line (skin)): 6.3 µM; IC50 (Homo sapiens, A-431, 72 h, A431 cell line (skin)): 0.34 µM; IC50 (Homo sapiens, ACHN, ACHN cell line (kidney)): 1.51 µM; IC50 (Homo sapiens, ASPC1, 72 h, ASPC1 cell line (pancreas)): 0.58 µM; IC50 (Homo sapiens, BT-20, 72 h, BT20 cell line (breast)): > 50 µM; IC50 (Homo sapiens, BXPC-3, 72 h, BXPC3 cell line (pancreas)): 0.08 µM; IC50 (Homo sapiens, C-33-A, C33A cell line (cervical)): 3.92 µM; IC50 (Homo sapiens, CAKI-1, 72 h, CAKI1 cell line (kidney)): > 50 µM; IC50 (Homo sapiens, COLO 205, 72 h, COLO205 cell line (colon)): 1.83 µM; IC50 (Homo sapiens, COLO-678, 72 h, COLO678 cell line (colon)): > 50 µM; IC50 (Homo sapiens, Ca-Ski, CASKI cell line (cervical)): 7.06 µM; IC50 (Homo sapiens, Caco-2, 72 h, CACO2 cell line (colon)): > 50 µM; IC50 (Homo sapiens, Calu-6, 72 h, CALU6 cell line (lung)): 4.68 µM; IC50 (Homo sapiens, DLD-1, 72 h, DLD1 cell line (colon)): > 50 µM; IC50 (Homo sapiens, DU-145, 72 h, DU145 cell line (prostate)): 3.15 µM; IC50 (Homo sapiens, EFO-21, 72 h, EFO21 cell line (ovary)): 16.9 µM; IC50 (Homo sapiens, EJ-28, 72 h, EJ28 cell line (bladder)): 5.41 µM; IC50 (Homo sapiens, Granta-519, 72 h, GRANTA-519 cell line (hematological)): 3.3 µM; IC50 (Homo sapiens, HCT-15, 72 h, HCT15 cell line (colon)): > 50 µM; IC50 (Homo sapiens, HCT-116, 72 h, HCT116 cell line (colon)): > 50 µM; IC50 (Homo sapiens, HEK293, 72 h, HEK293 cell line (kidney)): > 50 µM; IC50 (Homo sapiens, HL-60, 72 h, HL-60 cell line (hematological)): > 50 µM; IC50 (Homo sapiens, HT-29, 72 h, HT29 cell line (colon)): 2.8 µM; IC50 (Homo sapiens, HT-1080, 72 h, HT1080 cell line (connective tissue)): > 50 µM; IC50 (Homo sapiens, HeLa, HELA cell line (cervical)): > 50 µM; IC50 (Homo sapiens, HepG2, 72 h, HEPG2 cell line (liver)): 3.4 µM; IC50 (Homo sapiens, IGROV-1, 72 h, IGROV1 cell line (ovary)): > 50 µM; IC50 (Homo sapiens, IMR-90, 72 h, IMR.90 cell line): > 50 µM; IC50 (Homo sapiens, J82, 72 h, J82 cell line (bladder)): 1.32 µM; IC50 (Homo sapiens, JEG-3, 72 h, JEG3 cell line (placenta)): 4.2 µM; IC50 (Homo sapiens, JIMT-1, 72 h, JIMT1 cell line (breast)): > 50 µM; IC50 (Homo sapiens, K562, 72 h, K-562 cell line (hematological)): > 50 µM; IC50 (Homo sapiens, Kasumi 1, 72 h, KASUMI-1 cell line (hematological)): > 50 µM; IC50 (Homo sapiens, L-363, 72 h, L-363 cell line (hematological)): 5.63 µM; IC50 (Homo sapiens, LoVo, LOVO cell line (colon)): 1.95 µM; IC50 (Homo sapiens, MCF7, 72 h, MCF7 cell line (breast)): 1.04 µM; IC50 (Homo sapiens, MDA-MB-231, 72 h, MDAMB231 cell line (breast)): > 50 µM; IC50 (Homo sapiens, MDA-MB-435, 72 h, MDAMB435 cell line (skin)): > 50 µM; IC50 (Homo sapiens, MDA-MB-436, 72 h, MDAMB436 cell line (breast)): 1.43 µM; IC50 (Homo sapiens, MDA-MB-468, 72 h, MDAMB468 cell line (breast)): > 50 µM; IC50 (Homo sapiens, MG-63, 72 h, MG63 cell line (bone)): 4.7 µM; IC50 (Homo sapiens, MHH-ES-1, 72 h, MHHES1 cell line (bone)): > 50 µM; IC50 (Homo sapiens, MIA PaCa-2, 72 h, MIAPACA2 cell line (pancreas)): 6.39 µM; IC50 (Homo sapiens, MINO, MINO cell line (hematological)): 2.3 µM; IC50 (Homo sapiens, MV4-11, 72 h, MV4-11 cell line (hematological)): 0.79 µM; IC50 (Homo sapiens, NCI-H23, 72 h, NCI-H23 cell line (lung)): 4.86 µM; IC50 (Homo sapiens, NCI-H82, 72 h, NCIH82 cell line (lung)): > 50 µM; IC50 (Homo sapiens, NCI-H292, 72 h, NCIH292 cell line (lung)): > 50 µM; IC50 (Homo sapiens, NCI-H460, 72 h, NCIH460 cell line (lung)): 2.29 µM; IC50 (Homo sapiens, OVCAR-3, 72 h, OVCAR3 cell line (ovary)): > 50 µM; IC50 (Homo sapiens, OVCAR-4, 72 h, OVCAR4 cell line (ovary)): > 50 µM; IC50 (Homo sapiens, PANC-1, 72 h, PANC1 cell line (pancreas)): > 50 µM; IC50 (Homo sapiens, PC-3, 72 h, PC3 cell line (prostate)): > 50 µM; IC50 (Homo sapiens, PLC-PRF-5, 72 h, PLCPRF5 cell line (liver)): 3.79 µM; IC50 (Homo sapiens, Panc1005, 72 h, PANC1005 cell line (pancreas)): > 50 µM; IC50 (Homo sapiens, RD, RD cell line (muscle)): > 50 µM; IC50 (Homo sapiens, Ramos, RAMOS cell line (hematological)): > 50 µM; IC50 (Homo sapiens, SAOS-2, 72 h, SAOS2 cell line (bone)): 6.6 µM; IC50 (Homo sapiens, SF-268, 72 h, SF268 cell line (brain)): 3.94 µM; IC50 (Homo sapiens, SF-295, 72 h, SF295 cell line (brain)): 3.65 µM; IC50 (Homo sapiens, SK-BR-3, 72 h, SKBR3 cell line (breast)): 0.22 µM; IC50 (Homo sapiens, SK-HEP1, 72 h, SKHEP1 cell line (liver)): > 50 µM; IC50 (Homo sapiens, SK-LMS-1, 72 h, SKLMS1 cell line (uterus)): 3.55 µM; IC50 (Homo sapiens, SK-MEL-28, 72 h, SKMEL28 cell line (skin)): > 50 µM; IC50 (Homo sapiens, SK-N-AS, SKNAS cell line (brain)): > 50 µM; IC50 (Homo sapiens, SK-N-SH, SKNSH cell line (brain)): > 50 µM; IC50 (Homo sapiens, SK-OV-3, 72 h, SKOV3 cell line (ovary)): 3.18 µM; IC50 (Homo sapiens, SNB-75, 72 h, SNB75 cell line (brain)): > 50 µM; IC50 (Homo sapiens, SU-DHL10, 72 h, SU-DHL-10 cell line (hematological)): > 50 µM; IC50 (Homo sapiens, SU-DHL-6, 72 h, SU-DHL-6 cell line (hematological)): > 50 µM; IC50 (Homo sapiens, SW-620, 72 h, SW620 cell line (colon)): 1.71 µM; IC50 (Homo sapiens, T-24, 72 h, T24 cell line (bladder)): 5.25 µM; IC50 (Homo sapiens, TE-671, 72 h, TE671 cell line (muscle)): > 50 µM; IC50 (Homo sapiens, THP-1, 72 h, THP-1 cell line (hematological)): 5.57 µM; IC50 (Homo sapiens, U2OS, U2OS cell line (bone)): > 50 µM; IC50 (Homo sapiens, U-87 MG, U87MG cell line (brain)): > 50 µM; IC50 (Homo sapiens, UMUC3, 72 h, UMUC3 cell line (bladder)): 7.75 µM; IC50 (Homo sapiens, UO-31, 72 h, UO31 cell line (kidney)): > 50 µM; IC50 (Homo sapiens, WSU-NHL, WSU-NHL cell line (hematological)): 5.66 µM; IC50 (MT-3, 72 h, MT3 cell line (breast)): 3.17 µM; IC50 (NCI-H358M, NCIH358M cell line (lung)): 9.06 µM; IC50 (PBMC, PBMC (hematological)): > 50 µM; IC50 (RD-ES, RDES cell line (bone)): 3.48 µM
